The source of these data is US9649317B2, “Heterocyclic compounds and their use for the treatment of neurodegenerative tauopathies” (The Trustees of The University of Pennsylvania, priority 2012, dated 2017).

The subject of series [1] is AcTub-positive MTs in HEK/QBI293 cells. In words: Acetyl tubulin immunofluorescence. The class given is cell-based. Conditions: 4 h incubation. On the procedure: The HEK293 cell subclone, QBI293, was plated onto poly-D-lysine-coated glass coverslips at 50,000 cells/ml in DMEM supplemented with 10% fetal calf or bovine serum, 1% penicillin/streptomycin antibiotic solution and 1% glutamine and maintained overnight at 37° C. in 5% CO2. The next day, cells were left untreated or were treated with 100 nM epothilone D, 100 nM CNDR-51533 or 1 μM colchicine. After an additional 4 h of incubation at 37° C. in 5% CO2, cells were washed twice with PBS, and then fixed for 15 min in PBS containing 4% paraformaldehyde. The cells were again washed twice with PBS, and permeabilized with 0.1% Triton X-100 in PBS for 15 min. Following the Triton X-100 treatment, the cells were washed twice in PBS, and treated with PBS containing 3% bovine serum albumin for 1 h. Acetyl-tubulin antibody was subsequently added (1:1000 dilution) and incubated for 1 h. Cells were then washed cells 3×5 min with 0.1% Triton X-100 in PBS, and secondary antibody (goat-anti-mouse labeled with Alexa fluor 488 at 1:1000) was added and allowed to incubate for 1 h. […] Finally, the cells were washed once with PBS, followed by H2O, and the cover slips were mounted onto slides with Fluoromount G. Images were acquired on a microscope equipped for fluorescence detection. […]

Series [2] relates to detyrosinated α-tubulin (GluTub). In words: Detyrosinated α-tubulin (GluTub) in the cell-based studies. Particulars: data not shown.
The conditions of series [3]: mouse, in vivo; cited from earlier work.
Series [4] deals with acetyl-tubulin (AcTub) in HEK/QBI 293 cells. Briefly: Microtubule stabilization assay: acetyl-tubulin (AcTub) ELISA after compound treatment. In kind it is cell-based. Conditions: for AcTub elevation compared with epoD: at 100 nM (FIG. 1); for change in acetyl-tubulin (AcTub), in words: relative to vehicle-treated cells (FIG. 1, Tables 5 and 6). The source says:
The MT-stabilizing properties of triazolopyrimidines was investigated in a cell-free MT-polymerization assay, as well in a cell-based assay (HEK/QBI 293 cells) that measures changes in acetyl-tubulin (AcTub), a biomarker of stable MTs. (Laferriere, N.; MacRae, T.; Brown, D. Tubulin synthesis and assembly in differentiating neurons. Biochemistry and Cell Biology 1997, 75, 103-117; Black, M.; Baas, P.; Humphries, S. Dynamics of alpha-tubulin deacetylation in intact neurons. J Neurosci 1989, 9, 358).
The MT-stabilizing properties of additional triazolopyrimidines, phenylpyrimidines, and pyridazines was investigated in a cell-free MT-polymerization assay, as well in the aforementioned cell-based assay (HEK/QBI 293 cells) that measures changes in acetyl-tubulin (AcTub), a biomarker of stable MTs (Laferriere, N.; MacRae, T.; Brown, D. Tubulin synthesis and assembly in differentiating neurons. Biochemistry and Cell Biology 1997, 75, 103-117; Black, M.; Baas, P.; Humphries, S. Dynamics of alpha-tubulin deacetylation in intact neurons. J Neurosci 1989, 9, 358).
The HEK293 cell subclone, QBI293, was maintained in DMEM supplemented with 10% fetal calf or bovine serum, 1% penicillin/streptomycin antibiotic solution and 1% glutamine at 37° C. in 5% CO2. Cells were plated into 6-well plates at a density of 800,000 cells/well. […] Test compounds were added at multiple concentrations to the test wells and incubated for 4 h. Subsequently, the media was removed and the cells were washed with 1 ml of ice-cold phosphate-buffered saline (PBS). After removal of PBS, 0.2 ml of ice-cold RIPA (0.5% sodium deoxycholate, 0.1% SDS, 1% NP-40, 5 mM EDTA, pH 8.0) containing protease inhibitor mix (1 μg/ml each of pepstatin, leupeptin, TLCK, TPCK and trypsin inhibitor), 1 mM PMSF and 1 μM trichostatin A was added to the wells. The wells were then scraped using a cell scraper and pipetted into 1.5 ml microfuge tubes. The tubes were sonicated with a handheld sonicator at 20× on a power setting of 2, followed by centrifugation for 30 min at 15,000 rpm at 4° C. Supernatants were removed and quantified for protein concentration and the acetyl-tubulin levels were determined using an ELISA as described.
384-well plates were coated with 12G10α-tubulin antibody (Developmental Studies Hybridoma Bank at the University of Iowa; 10 μg/ml) in 30 μl of cold 0.1 M bicarbonate buffer. After overnight incubation at 4° C., the plates were washed with cold PBS, followed by the addition of Block-Ace solution and overnight incubation at 4° C. The blocking solution was removed and 10 μl of EC buffer (0.02 M sodium phosphate, pH 7.0, 2 mM EDTA, 0.4 M NaCl, 0.2% bovine serum albumin, 0.05% CHAPS, 0.4% BlockAce and 0.05% NaN3) was added to each well. Cell culture supernatants were diluted in EC buffer to final protein concentrations of 9, 3, 1.5 and 0.5 μg/30 μl, and 30 μl of each were added to wells in duplicate and plates were subsequently sealed. After overnight incubation at 4° C., the plates were aspirated and washed with cold PBS containing 0.05% Tween-20 and 0.05% thimerisol (PBS-Tween buffer), followed by addition of 30 μl/well of HRP-conjugated acetyl-tubulin antibody (6-11B-1 antibody from Sigma-Aldrich) that was prepared with a Peroxidase Labeling Kit following the manufacturer's instructions that was subsequently diluted 1:1000 in C buffer (0.02 M sodium phosphate, pH 7.0, 2 mM EDTA, 0.4 M NaCl, 1% bovine serum albumin and 0.05% thimerisol). The plates were incubated at room temperature for 4 h on a platform rocker, followed by washing with cold PBS-Tween buffer. Peroxidase substrate solution (30 μl) was added and the reaction was quenched after 5-10 min by addition of 30 μl of 10% phosphoric acid. Plates were read on a SpectraMax M5 plate reader at 450 nm. Because an acetyl-tubulin standard is not available, all data were normalized to a control treatment condition (e.g., no compound addition).
A general note: An ELISA detects its analyte on a solid surface through an enzyme-linked reagent.

The nature of series [5]: Determination of plasma and brain compound concentrations. In kind it is in vivo. Conditions: mouse, 1 hour after a 5 mg/kg intraperitoneal injection. Here is the method:
For utility in neurodegenerative diseases, MT-stabilizing compounds must cross the blood-brain barrier (BBB) and enter the brain. As summarized in Table 7, a number of examples show concentrations in the brain that exceed 0.5 μM an hour after administration of a 5 mg/kg dose, with brain-to-plasma concentration ratios of ˜0.3 or higher.
Mouse brains were homogenized in 10 mM ammonium acetate, pH 5.7 (1:2; w/v) using a handheld sonic homogenizer. Mouse plasma was obtained from blood that was collected into a 1.5 ml tube containing 0.5M EDTA solution and which was centrifuged for 10 minutes at 4500 g at 4° C. Aliquots (50 μl) of brain homogenates (50% w/v in 100 mM NH4OAC pH 5.75) or plasma were mixed with 0.2 ml of acetonitrile, centrifuged at 15,000 g, and the resulting supernatant was used for subsequent LC-MS/MS analysis. The LC-MS/MS system was comprised of an Aquity UPLC and a TQ MS that was controlled using MassLynx software (Waters Corporation, Milford, Mass., USA). Compounds were detected using multiple reaction monitoring (MRM) of their specific collision-induced ion transitions. Samples were separated on an Aquity BEH C18 column (1.7 μm, 2.1×50 mm) at 35° C. Operation was in positive electrospray ionization mode, with mobile phase A of 0.1% (v/v) formic acid, and B of acetonitrile with 0.1% (v/v) formic acid. Injections of 5 μl were separated at a flow rate of 0.6 mL/min using a gradient from 5% to 95% B over two minutes, followed by wash and re-equilibration steps. The MS was operated with a desolvation temperature of 450° C. and a source temperature of 150° C. Desolvation and source nitrogen gas flows were 900 L/hr and 50 L/hr, respectively. Source and MS/MS voltages were optimized for each compound using the MassLynx auto tune utility. To account for possible matrix effects on analytes, standard curves were generated for each compound from brain homogenate and plasma samples that had compound added at 24, 240, 2400 and 24000 nM. The standard curve samples were extracted and analyzed in an identical fashion as the corresponding tissue-derived samples, and peak areas were plotted against concentration and a linear regression curve was used to obtain estimated concentrations of the tissue-derived samples using the peak areas. In all cases, the tissue-derived sample peak areas fell within the linear portion of standard curves that were prepared and analyzed concurrently with the samples.

In series [6] the test system is brain α-tubulin that is acetylated (AcTub). In words: Determination of brain acetyl-tubulin levels. The class given is in vivo, CD1 mice. Conditions: wild-type mice, once-daily 1 mg/kg dose, 3 days (FIG. 14).
Setting [7] is: brain, ip, read-out: Brain nM (SD).
Setting [8] is: plasma, ip, read-out: Plasma nM (SD).

Entries after “also recorded” stand apart in the source; their conditions may differ. Read-outs that look alike come from different tables or passages of the source.

In the case of `CNCCCOc1cc(F)c(-c2c(Cl)nc3ncnn3c2N[C@@H](C)C(F)(F)F)c(F)c1` [CNDR-51533, (S)-5-Chloro-6-(2,6-difluoro-4-(3-(methylamino)propoxy)phenyl)-N-(1,1,1-trifluoropropan-2-yl)-[1,2,4]triazolo[1,5-a]pyrimidin-7-amine, reference compound], in series [1] (100 nM, relative to control cells), the “AcTub immunofluorescence, MT structure” value is reported as “large increase in highly organized, AcTub-positive MTs”. Also, the “change in detyrosinated α-tubulin (GluTub)” value (shortened to “change … (GluTub)”) in series [2] is “significant increases of detyrosinated α-tubulin (GluTub)”. Moreover, in series [3], the “crossing of the blood-brain barrier (BBB), previously described agents” value is “do not cross the BBB”. For the same molecule, in series [4], the “AcTub elevation compared with epoD” value is “significantly more effective than epoD” and the “change in acetyl-tubulin (AcTub), in words” value (“change in acetyl-tubulin” for short) is “dose-dependent elevation in AcTub”.

Regarding `CNCCCOc1cc(F)c(-c2c(Cl)nc3ncnn3c2NCC(F)(F)F)c(F)c1` [CNDR-51534, 5-Chloro-6-(2,6-difluoro-4-(3-(methylamino)propoxy)phenyl)-N-(2,2,2-trifluoroethyl)-[1,2,4]triazolo[1,5-a]pyrimidin-7-amine], the “change … (GluTub)” value in series [2] is “significant increases of detyrosinated α-tubulin (GluTub)”. In series [4], the “AcTub elevation compared with epoD” value is “significantly more effective than epoD” and the “change in acetyl-tubulin” value is reported as “dose-dependent elevation in AcTub”.

Consider `Fc1cc(F)c(-c2c(Cl)nc3ncnn3c2NCC(F)(F)F)c(F)c1` [CNDR-51539, 5-Chloro-N-(2,2,2-trifluoroethyl)-6-(2,4,6-trifluorophenyl)-[1,2,4]triazolo[1,5-a]pyrimidin-7-amine], for which the “change … (GluTub)” value in series [2] is “significant increases of detyrosinated α-tubulin (GluTub)”. Also, the “change in acetyl-tubulin” value in series [4] was “dose-dependent elevation in AcTub”.

Consider `C[C@H](Nc1nc(-c2cnccn2)nc(Cl)c1-c1c(F)cc(F)cc1F)C(F)(F)F` [CNDR-51549, (S)-6-chloro-2-(pyrazin-2-yl)-5-(2,4,6-trifluorophenyl)-N-(1,1,1-trifluoropropan-2-yl)pyrimidin-4-amine], for which the concentration at 1 h in series [5] (setting [7]) turned out to be 2870 nM; in series [5] (setting [8]), 4950 nM. Also, the Brain/Plasma in series [5] turned out to be 0.58. Moreover, the “AcTub levels in the brain” value in series [6] is “increase of AcTub levels in the brains; also recorded: increase in the fraction of brain α-tubulin that is acetylated”.

As for `C[C@H](Nc1nc(-c2ccccn2)nc(Cl)c1-c1c(F)cc(F)cc1F)C(F)(F)F` [CNDR-51552, (S)-6-chloro-2-(pyridin-2-yl)-5-(2,4,6-trifluorophenyl)-N-(1,1,1-trifluoropropan-2-yl)pyrimidin-4-amine], the results for the concentration at 1 h in series [5] (setting [7]) and in series [5] (setting [8]) were 1480 nM and 4320 nM, respectively. The Brain/Plasma in series [5] was 0.34.

Consider `C[C@H](Nc1c(-c2c(F)cc(OCCCN(C)C)cc2F)c(Cl)nc2ncnn12)C(F)(F)F` [CNDR-51555, (S)-5-Chloro-6-(4-(3-(dimethylamino)propoxy)-2,6-difluorophenyl)-N-(1,1,1-trifluoropropan-2-yl)-[1,2,4]triazolo[1,5-a]pyrimidin-7-amine], for which the concentration at 1 h in series [5] (setting [7]) was determined as 1350 nM; in series [5] (setting [8]) it was 4930 nM. In series [5], this molecule showed a Brain/Plasma of 0.27.

As usually defined, the Kp is tissue or fluid exposure divided by exposure in the circulation. In the case of `C[C@H](Nc1nc(-c2ccccn2)nc(Cl)c1-c1c(F)cc(OCCCN(C)C)cc1F)C(F)(F)F` [CNDR-51561, (S)-6-Chloro-5-(4-(3-(dimethylamino)propoxy)-2,6-difluorophenyl)-2-(pyridin-2-yl)-N-(1,1,1-trifluoropropan-2-yl)pyrimidin-4-amine], the concentration at 1 h was determined as 701 nM in series [5] (setting [7]) and 2120 nM in series [5] (setting [8]). This molecule also showed a Kp at 1 h in series [5] (brain/plasma, ip) of 0.33.

As to `COc1cc2c(c(OC)c1OC)-c1ccc(OC)c(=O)cc1[C@@H](NC(C)=O)CC2` [colchicine], the AcTub immunofluorescence staining result in series [1] (1 μM, data not shown) is recorded as “significant loss of AcTub staining”.

With “(S)-6-Chloro-5-(2,6-difluoro-4-(3-(methylamino)propoxy)phenyl)-2-(pyridin-2-yl)-N-(1,1,1-trifluoropropan-2-yl)pyrimidin-4-amine [CNDR-51562]”, in series [4] (4 h treatment), the “dose of maximal effect (AcTub increase)” value worked out at 0.1 µM. Also, the “Fold-Increase in AcTub” value in series [4] (4 h treatment, at the dose of maximal effect, relative to control) worked out at 6.2 fold.
